Literature values, collected in patent publication US20160151380A1, “THERAPIES FOR DISEASES CAUSED BY ARTHROPOD-BORNE PARASITES” (THE REGENTS OF THE UNIVERSITY OF CALIFORNIA, priority 2013, published 2016).

Molecular target: T1, PKCepsilon (Homo sapiens, UniProt Q02156)
T1 sequence (Q02156 1-737): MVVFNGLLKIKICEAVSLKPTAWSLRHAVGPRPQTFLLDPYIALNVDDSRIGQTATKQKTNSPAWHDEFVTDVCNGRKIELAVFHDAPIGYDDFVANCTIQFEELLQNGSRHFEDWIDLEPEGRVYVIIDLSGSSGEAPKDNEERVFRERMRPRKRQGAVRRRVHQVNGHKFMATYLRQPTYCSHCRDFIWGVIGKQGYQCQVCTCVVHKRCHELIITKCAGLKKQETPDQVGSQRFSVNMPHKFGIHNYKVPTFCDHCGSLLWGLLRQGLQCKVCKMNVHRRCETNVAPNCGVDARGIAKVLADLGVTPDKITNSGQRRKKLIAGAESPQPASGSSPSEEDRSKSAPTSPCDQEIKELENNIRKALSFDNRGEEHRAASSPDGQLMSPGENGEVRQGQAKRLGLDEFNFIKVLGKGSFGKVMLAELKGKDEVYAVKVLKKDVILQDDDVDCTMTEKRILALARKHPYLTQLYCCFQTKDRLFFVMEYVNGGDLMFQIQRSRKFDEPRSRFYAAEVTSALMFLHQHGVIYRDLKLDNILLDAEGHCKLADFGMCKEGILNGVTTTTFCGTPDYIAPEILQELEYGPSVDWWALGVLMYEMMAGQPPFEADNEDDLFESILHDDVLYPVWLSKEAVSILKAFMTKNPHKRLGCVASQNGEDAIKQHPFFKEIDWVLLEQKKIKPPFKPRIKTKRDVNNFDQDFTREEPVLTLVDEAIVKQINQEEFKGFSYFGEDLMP
Conditions: PKCepsilon; cited from earlier work

Row | Compound | IC50 [nM] | Kd [nM]
1 | O=C1NC(=O)c2c1c1c3ccccc3[nH]c1c1[nH]c3ccccc3c21 [Arcyriaflavin A] | 310 | –
2 | CC(C)(C)c1nc2c3cc[nH]c(=O)c3c3cc(F)ccc3c2[nH]1 [BCP9000906] | 500 | –
3 | COc1cccc(Nc2ncnn3ccc(CN4CC[C@@H](N)[C@H](O)C4)c23)c1 [BMS-690514] | – | < 400
4 | O=C1NC(=O)C(c2c[nH]c3ccccc23)=C1c1c[nH]c2ccccc12 [Bisindolylmaleimide IV, 3,4-bis(1H-indol-3-yl)pyrrole-2,5-dione] | 190 | –
5 | CN(C)CCCn1cc(C2=C(c3c[nH]c4ccccc34)C(=O)NC2=O)c2ccccc21 [Bisindolylmaleimide I] | < 25 | –
6 | CCN1CCOCCn2cc(c3ccccc32)C2=C(C(=O)NC2=O)c2cn(c3ccccc23)CCOCC1 [CHEMBL103055] | 75 | –
7 | O=C(OC1CCCC1Cc1ccc(O)cc1)c1cc(O)c(C(=O)c2c(O)cccc2C(=O)O)c(O)c1 (stereo not drawn) [CHEMBL295806] | 120 | –
8 | N=C(N)SCCCn1c(-c2cc3ccccc3s2)c(C2=CC(=O)NC2=O)c2ccccc21 [CHEMBL350335] | 10 | –
9 | Cc1c(Nc2c(C#N)cncc2/C=C/CCN2CCC[C@@H](N)C2)ccc2[nH]ccc12 [CHEMBL606245] | 14 | –
10 | COc1ccc2c(c1)c(C1=C(c3c[nH]c4ccccc34)C(=O)NC1=O)cn2CCCN(C)C [Go6983, 3-[1-[3-(dimethylamino)propyl]-5-methoxyindol-3-yl]-4-(1H-indol-3-yl)pyrrole-2,5-dione] | > 150 | –
11 | Cc1cncc2cccc(S(=O)(=O)N3CCCN(C(=O)CN)C[C@@H]3C)c12 [H-1152; Glycyl] | 500 | –
12 | C#Cc1cccc(Nc2ncnc3cc4c(cc23)OCCOCCOCCO4)c1 [Icotinib] | > 1000 | –
13 | O=C1NC(=O)C(c2cn(CCCn3ccnc3)c3ccccc23)=C1Nc1ccccc1 [PKCb Inhibitor, 3-anilino-4-[1-(3-imidazol-1-ylpropyl)indol-3-yl]pyrrole-2,5-dione] | > 50 | –
14 | O=C1Nc2ccc3ncsc3c2/C1=C/c1cnc[nH]1 [PKR Inhibitor] | > 150 | –
15 | Nc1ncnc2c1c(-c1cnc3[nH]ccc3c1)nn2C1CCCC1 [PP121] | < 750 | –
16 | Cn1cc(C2=C(c3cn(CCCSC(=N)N)c4ccccc34)C(=O)NC2=O)c2ccccc21 [Ro-31-8220, methanesulfonic acid; 3-[3-[4-(1-methylindol-3-yl)-2,5-dioxopyrrol-3-yl]indol-1-yl]propyl carbamimidothioate] | 10 | –
17 | O=C1NC(=O)c2c1c1c3ccccc3n3c1c1c2c2ccccc2n1C1CCC3O1 [SB218078] | > 150 | –
18 | C[C@@H](OC(=O)c1ccc2c(c1)OCCO2)C(=O)Nc1ccc(Cl)cc1Cl [SureCN2579964] | < 750 | –
19 | CCc1cccc(OCCOCCN2CC(C)OC(C)C2)c1 (stereo not drawn) [SureCN2934634] | 1.6 | –
20 | CC1CCCN(CCOCCOc2ccc(Cl)cc2C(C)(C)C)C1 (stereo not drawn) [SureCN2934911] | 36 | –
21 | CCOC(=O)C(NC(=O)CCC(=O)OCC(=O)C1(O)CCC2C3CCC4=CC(=O)CCC4(C)C3C(O)CC21C)C(O)c1ccccc1 (stereo not drawn) [SureCN3774124] | 330 | –
22 | COc1c(Br)cc(Br)cc1/C=N\Nc1nc(NCc2ccccc2)nc(N2CCOCC2)n1 [SureCN5757856] | 140 | –
23 | Cdk1/2 Inhibitor III | > 50 | –

Same assay, conditions: cited from earlier work

Row | Compound | Ki [nM]
24 | CC(C)[C@H]1C(=O)N[C@H](CO)Cc2c[nH]c3cccc(c23)N1C [Indolactam V] | 7.7

Molecular target: JNK3 (Homo sapiens, UniProt P53779)
Conditions: cited from earlier work

JNK3, sequence (P53779 whole entry, species assumed): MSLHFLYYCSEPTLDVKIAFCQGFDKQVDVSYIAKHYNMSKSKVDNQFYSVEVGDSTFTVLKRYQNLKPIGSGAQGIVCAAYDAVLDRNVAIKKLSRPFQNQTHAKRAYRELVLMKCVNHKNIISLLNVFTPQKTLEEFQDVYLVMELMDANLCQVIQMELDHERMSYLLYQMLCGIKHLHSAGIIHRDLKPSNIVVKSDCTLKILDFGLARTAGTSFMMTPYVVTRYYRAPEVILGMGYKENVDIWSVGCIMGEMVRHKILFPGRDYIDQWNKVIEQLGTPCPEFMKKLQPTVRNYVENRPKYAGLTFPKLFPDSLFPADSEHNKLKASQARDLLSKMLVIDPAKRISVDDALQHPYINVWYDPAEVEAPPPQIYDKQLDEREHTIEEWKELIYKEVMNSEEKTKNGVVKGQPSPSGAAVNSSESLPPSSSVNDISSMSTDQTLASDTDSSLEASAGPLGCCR

Row | Compound | IC50 [nM] | Kd [nM] | Ki [nM]
25 | Cc1n[nH]c2ccc(-c3cncc(OC[C@@H](N)Cc4c[nH]c5ccccc45)c3)cc12 [A 443654] | > 900 | – | –
26 | COc1cc(N2CCOCC2)ccc1Nc1ncc(F)c(Nc2ccccc2NS(C)(=O)=O)n1 [CZC-25146] | < 600 | – | –
27 | O=C(O)c1ccc(-c2c[nH]c3ncc(-c4ccccc4)cc23)cc1C1CCCC1 [GSK650394A] | > 600 | – | –
28 | Cn1c2ccccc2c2c3c(c4c5ccccc5n(CCC#N)c4c21)CNC3=O [Go6976, 5,6,7,13-Tetrahydro-13-methyl-5-oxo-12H-indolo[2,3-a]pyrrolo[3,4-c]carbazole-12-propa-nenitrile] | > 300 | – | –
29 | CCS(=O)(=O)Nc1ccc2c(c1)/C(=C(/Nc1ccc(CN3CCCCC3)cc1)c1ccccc1)C(=O)N2 [Hesperadin] | – | < 10 | –
30 | CCCC(=O)NC1=NC2C(N=CN2C2OC3OP(=O)(O)OC3C2OC(=O)CCC)C(=O)N1 (stereo not drawn) [Kinome_3027] | – | – | 18
31 | O=C1c2ccccc2-c2nc3nnnn3nc21 [PDK1/Akt/Flt Inhibitor] | 500 | – | –
32 | CN(C)C[C@@H]1CCn2cc(c3ccccc32)C2=C(C(=O)NC2=O)c2cn(c3ccccc23)CCO1 [Ruboxistaurin] | > 900 | – | –
33 | CN1CCC(CNc2ccc3ncc(-c4cccc(OC(F)(F)F)c4)n3n2)CC1 [SGI-1776] | > 1000 | – | –
34 | O=C(O)c1ccc2c(c1)nc(Nc1cccc(Cl)c1)c1ccncc12 [Silmitasertib] | > 1000 | – | –
35 | O=C1NCc2c1c1c3ccccc3[nH]c1c1[nH]c3ccccc3c21 [Staurosporine aglycone] | < 100 | – | –
36 | COc1ccc(-c2cc3nccn3c(Nc3ncccc3C(N)=O)n2)cc1OC [Syk Inhibitor IV] | < 400 | – | –

Molecular target: JNK1 (Homo sapiens, UniProt P45983)
Conditions: cited from earlier work

JNK1, sequence (P45983 whole entry, species assumed): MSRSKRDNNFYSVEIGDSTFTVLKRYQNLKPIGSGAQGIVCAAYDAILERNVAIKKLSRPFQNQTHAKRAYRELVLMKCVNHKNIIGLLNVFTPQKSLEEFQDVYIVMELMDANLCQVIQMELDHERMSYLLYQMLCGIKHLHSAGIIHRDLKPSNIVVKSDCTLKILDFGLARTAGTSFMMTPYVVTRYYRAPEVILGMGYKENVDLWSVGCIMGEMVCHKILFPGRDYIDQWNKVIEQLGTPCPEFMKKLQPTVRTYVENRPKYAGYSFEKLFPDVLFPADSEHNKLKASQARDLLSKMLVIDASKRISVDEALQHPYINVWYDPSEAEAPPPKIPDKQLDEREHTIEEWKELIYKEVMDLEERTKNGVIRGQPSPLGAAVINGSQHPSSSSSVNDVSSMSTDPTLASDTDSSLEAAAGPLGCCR

Row | Compound | IC50 [nM] | Kd [nM] | Ki [nM]
37 | Cc1n[nH]c2ccc(-c3cncc(OC[C@@H](N)Cc4c[nH]c5ccccc45)c3)cc12 [A 443654] | > 900 | – | –
38 | N#CC(c1ccnc(NCCc2cccnc2)n1)c1nc2ccccc2s1 (stereo not drawn) [AS601245] | 150 | – | –
39 | CC1=C2N=C(C=C3NC(=Cc4[nH]c(c(CCC(=O)O)c4CC(=O)O)Cc4[nH]c1c(CC(=O)O)c4CCC(=O)O)C(CCC(=O)O)C3(C)CC(=O)O)C(CCC(=O)O)C2(C)CC(=O)O (stereo not drawn) [BX517] | > 900 | – | –
40 | CCS(=O)(=O)N1CC(CC#N)(n2cc(-c3ncnc4[nH]ccc34)cn2)C1 [Baricitinib] | > 1000 | – | –
41 | N#C/C(=C1/Nc2ccccc2S1)c1ccnc(NCCc2cccnc2)n1 [CHEMBL1788116] | 150 | – | –
42 | COCCOc1ccc2c(c1)ncn2-c1ccc2cccc(N3CCC(N)CC3)c2n1 [CP673451] | > 1000 | – | –
43 | COc1cc(N2CCOCC2)ccc1Nc1ncc(F)c(Nc2ccccc2NS(C)(=O)=O)n1 [CZC-25146] | < 600 | – | –
44 | CCS(=O)(=O)Nc1ccc2c(c1)/C(=C(/Nc1ccc(CN3CCCCC3)cc1)c1ccccc1)C(=O)N2 [Hesperadin] | – | < 10 | –
45 | NC(=O)Nc1sc(-c2ccc(F)cc2)cc1C(N)=O [IKK-2 Inhibitor IV] | – | < 1250 | –
46 | O=C(c1ccc(Nc2nccc(-c3cc4ccccc4s3)n2)cc1)N1CCC(N2CCCC2)CC1 [K00596a] | 100 | – | –
47 | CCCCCCOC(=O)[C@]1(O)C[C@@H]2O[C@@]1(C)n1c3ccccc3c3c4c(c5c6ccccc6n2c5c31)C(=O)NC4 [KT5720] | < 800 | – | –
48 | BrCBr [Kinome_3024] | – | – | 3
49 | CCCC(=O)NC1=NC2C(N=CN2C2OC3OP(=O)(O)OC3C2OC(=O)CCC)C(=O)N1 (stereo not drawn) [Kinome_3027] | – | – | 1
50 | CCCC(=O)NC1=NC2C(N=CN2C2OC3OP(=O)(O)OC3C2OC(=O)CCC)C(=O)N1 (stereo not drawn) [Kinome_3028] | – | – | 3
51 | CCN(CC)C(=O)c1ccc(Nc2nc(OCC3CCCCC3)c3[nH]cnc3n2)cc1 [NU6140] | 500 | – | –
52 | CC(C)(C)n1nc(Cc2cccc3ccccc23)c2c(N)ncnc21 [PP1 Analog II; 1NM-PP1] | 140 | – | –
53 | O=C(O)c1ccc2c(c1)nc(Nc1cccc(Cl)c1)c1ccncc12 [Silmitasertib] | > 1000 | – | –
54 | O=C1NCc2c1c1c3ccccc3[nH]c1c1[nH]c3ccccc3c21 [Staurosporine aglycone] | < 100 | – | –
55 | CN1CC=C(c2c[nH]c3ccc(-c4cccs4)cc23)CC1 [SureCN10063060] | – | – | > 1000

Molecular target: MAPK14 p38 (Homo sapiens, UniProt Q16539)
Conditions: cited from earlier work

MAPK14 p38, sequence (Q16539 whole entry): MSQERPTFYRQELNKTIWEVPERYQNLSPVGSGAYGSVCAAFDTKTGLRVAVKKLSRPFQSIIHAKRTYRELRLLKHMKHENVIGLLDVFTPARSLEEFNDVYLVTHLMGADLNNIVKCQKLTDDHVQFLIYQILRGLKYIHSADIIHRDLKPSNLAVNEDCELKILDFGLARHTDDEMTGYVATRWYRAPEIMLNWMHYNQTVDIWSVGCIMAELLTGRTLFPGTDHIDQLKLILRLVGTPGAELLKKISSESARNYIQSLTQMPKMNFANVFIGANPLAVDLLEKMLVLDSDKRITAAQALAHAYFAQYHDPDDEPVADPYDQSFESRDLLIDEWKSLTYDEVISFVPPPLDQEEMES

Row | Compound | IC50 [nM] | Ki [nM] | Kd [nM]
56 | Cc1ccc(C(=O)Nc2cccc(C(F)(F)F)c2)cc1-c1ccc2nc(N)ncc2c1 [2ofv] | 6 | – | –
57 | Cc1cccc(-c2nn(C(=S)Nc3ccccc3)cc2-c2ccnc3ccccc23)n1 [A-83-01] | 100 | – | –
58 | COc1cc2ncnc(Nc3cccc(Cl)c3)c2cc1OC [AG1478] | 560 | – | –
59 | CC1=C2N=C(C=C3NC(=Cc4[nH]c(c(CCC(=O)O)c4CC(=O)O)Cc4[nH]c1c(CC(=O)O)c4CCC(=O)O)C(CCC(=O)O)C3(C)CC(=O)O)C(CCC(=O)O)C2(C)CC(=O)O (stereo not drawn) [BX517] | > 900 | – | –
60 | CCNc1nnc2ccc(-c3ocnc3-c3ccc(F)cc3)cn12 [CHEMBL213451] | 7.6 | – | –
61 | CC(C)c1nnc2ccc(-c3ocnc3-c3ccc(F)cc3Cl)cn12 [CHEMBL215652] | 2.5 | – | –
62 | Cc1ccc(C(=O)Nc2ccon2)cc1Nc1ncnc(NC2CCCC2)c1C#N [CHEMBL383172] | – | 1.6 | –
63 | Cc1ccc(-n2nc(C(C)(C)C)cc2NC(=O)Nc2cccc3ccccc23)cc1 [CHEMBL420047] | – | – | 1
64 | Cc1ccc(NC(=O)c2cccc(N3CCCCC3)c2)cc1-c1ccc(C(=O)NCC2CC2)cc1 [CHEMBL1964275] | – | – | < 10
65 | NC(N)=NC(=O)Cc1c(Cl)cccc1Cl [Kinome_3519] | – | 0.2 | –
66 | c1ccc(-c2[nH]ncc2-c2ccnc3ccccc23)nc1 [LY364947] | 740 | – | –
67 | CNC(=O)c1cc(Oc2ccc(NC(=O)Nc3ccc(Cl)c(C(F)(F)F)c3)c(F)c2)ccn1 [Regorafenib] | < 100 | – | –
68 | Cc1cc(F)ccc1-c1nc(NC(CO)CO)nc2c1ccc(=O)n2-c1c(F)cccc1F [SB681323] | < 100 | – | –
69 | Oc1cccc2cccnc12 [SPDD01923] | 0.11 | – | –
70 | CN(C)c1ccc(C(=N)c2ccc(N(C)C)cc2)cc1 [SureCN3936664] | 5 | – | –
71 | CCCCCCCCCCCCCC(=NO)c1cc(OC)ccc1O [SureCN4219451] | 1.8 | – | –
72 | CCC(C)C(C(=O)O)N1C(=O)C(=Cc2c(F)cccc2Cl)SC1=S (stereo not drawn) [SureCN4762364] | 3.2 | – | –
73 | O=C(COC(=O)C1COc2ccccc2O1)Nc1cc(C(F)(F)F)ccc1N1CCOCC1 (stereo not drawn) [SureCN4875304] | 540 | – | –
74 | COc1ccc2c(Oc3ccc(NC(=O)c4c(C)n(CC(C)(C)O)n(-c5ccccc5)c4=O)nc3)ccnc2c1 [SureCN5495613] | 9 | – | –
75 | Cc1ccc(NC(=O)c2cccc(N(C)C)c2)cc1NC(=O)c1ccc(O)cc1 [ZM336372] | 180 | – | –
